These results are taken from US20130158098A1, “Alkenyl Substituted Cycloaliphatic Compounds as Chemical Inducers of Proximity” (priority 2010, published 2013).

The data set can be described thus: ABA stability in cell culture (luciferase biofunctional readout). The class given is in vitro ADME, Chinese hamster. Here is the method: FIG. 3C provides the results of a stability test of ABA in cell culture conditions. CHO cells were pre-transfected with the activation and reporter DNA constructs for 24 hours. 100 μM ABA was then added to the culture and cells were assayed for luciferase activity after 10 hours. During the 10-hour incubation, the cell culture media were replaced with media containing freshly added ABA every 1, 2.5, 5 hour or no replacement. FIG. 4A illustrates the results of an experiment in which human serum pre-incubated ABA was used to induce luciferase transcription. ABA was incubated with pure non-heat inactivated human serum at 37° C. for indicated time period. ABA containing serum was then added to the CHO cell culture to a final 100 μM ABA concentration for 25 hours and cells were assayed for luciferase activity. The cells were pre-transfected with the activation and reporter DNA constructs for 24 hours. FIG. 4B illustrates the results of an experiment in which fetal bovine serum pre-incubated ABA was used to induce luciferase transcription. ABA was incubated with pure heat inactivated fetal bovine serum at 37° C. for indicated time period. ABA containing serum was then added to the CHO cell culture to a final 100 μM ABA concentration for 10 hours and cells were assayed for luciferase activity. The cells were pre-transfected with the activation and reporter DNA constructs for 24 hours.
In plants, ABA had been reported to be unstable due to active enzymatic degradation (Cutler, A. J. and Krochko, J. E. (1999) Formation and breakdown of ABA. Trends Plant Sci. 4, 472-478). […] The activity of residual ABA in the serum was measured by its ability to induce the transcriptional activation of the luciferase reporter in cells expressing the ABA-activator cassette. […] Using this assay, the bioavailability in mice was evaluated. […]

Consider `CC1=CC(=O)CC(C)(C)C1(O)/C=C/C(C)=C/C(=O)O` (stereo not drawn) [ABA, abscisic acid], for which the ABA activity retained result is given as “about 60%” (after 24 hours of incubation with CHO cells) and “around 23%” (after 48 hours of incubation with CHO cells). Also, the “reduction in ability to induce transcription of luciferase” value (cell culture media, up to 48 hours) is “no significant reduction”.
